In PubChem BioAssay AID256 (DTP/NCI, 2004) one finds T/C data, which are given here for 26 molecules.

Inconclusive results and toxic doses are left out. Residues, ends and D or L forms follow the SMILES beside them.

The test deals with CD2F1 mice, L1210 leukemia ip, survival T/C. Kind of test: NCI In Vivo Anticancer Drug Screen. Data for tumor model L1210 Leukemia (intraperitoneal) in CD2F1 (CDF1) mice. Particulars: higher = longer survival. The procedure, abridged:
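In this screen, transplantable tumors were grown in mice given either the compound or its vehicle. Results were expressed as the treated measurement relative to the control measurement.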

The mark [1] stands for this setting: endpoint: mean survival time, dose: 25.0 mg/kg/injection, schedule: Q04DX003 (ip), vehicle: saline with Tween-80.
Where [2] appears, read: endpoint: mean survival time, dose: 50.0 mg/kg/injection, schedule: Q04DX003 (ip), vehicle: saline with Tween-80.
Setting [3] is: endpoint: mean survival time, dose: 100.0 mg/kg/injection, schedule: Q04DX003 (ip), vehicle: saline with Tween-80.
The mark [4] stands for this setting: endpoint: mean survival time, dose: 100.0 mg/kg/injection, schedule: Q01DX001 (ip), vehicle: saline.
Setting [5] is: endpoint: mean survival time, dose: 100.0 mg/kg/injection, schedule: Q01DX009 (ip), vehicle: saline with Tween-80.
Where [6] appears, read: endpoint: mean survival time, dose: 200.0 mg/kg/injection, schedule: Q01DX001 (ip), vehicle: saline.
Setting [7] is: endpoint: mean survival time, dose: 200.0 mg/kg/injection, schedule: Q01DX009 (ip), vehicle: saline with Tween-80.
[8] abbreviates: endpoint: mean survival time, dose: 400.0 mg/kg/injection, schedule: Q01DX001 (ip), vehicle: saline.
Where [9] appears, read: endpoint: mean survival time, dose: 400.0 mg/kg/injection, schedule: Q01DX009 (ip), vehicle: saline with Tween-80.
[10] abbreviates: endpoint: mean survival time, dose: 100.0 mg/kg/injection, schedule: Q01DX001 (ip), vehicle: Klucel (hydroxypropylcellulose) (HPC).
The mark [11] stands for this setting: endpoint: mean survival time, dose: 200.0 mg/kg/injection, schedule: Q01DX001 (ip), vehicle: Klucel (hydroxypropylcellulose) (HPC).
[12] abbreviates: endpoint: mean survival time, dose: 50.0 mg/kg/injection, schedule: Q01DX001 (ip), vehicle: saline.
The mark [13] stands for this setting: endpoint: mean survival time, dose: 100.0 mg/kg/injection, schedule: Q01DX001 (ip), vehicle: saline with Tween-80.
Where [14] appears, read: endpoint: mean survival time, dose: 200.0 mg/kg/injection, schedule: Q01DX001 (ip), vehicle: saline with Tween-80.
Where [15] appears, read: endpoint: mean survival time, dose: 400.0 mg/kg/injection, schedule: Q01DX001 (ip), vehicle: saline with Tween-80.

Consider `COc1ccc2c(c1)CCC1(C)C2=CC(=O)/C1=C\[O-].COc1ccc2c(c1)CCC1(C)C2=CC(=O)/C1=C\[O-].[Cu+2]` (stereo unspecified), for which the T/C runs as follows: under setting [1], 96 % of control; under setting [2], 87 % of control; under setting [3], 86 % of control.
In the case of `OCCOCCN1CCN(CCCN2c3ccccc3Sc3ccc(C(F)(F)F)cc32)CC1`, the T/C (endpoint: mean survival time, dose: 6.25 mg/kg/injection, schedule: Q01DX009 (ip), vehicle: saline) is 121 % of control.
Take `O=C(Cc1ccc([N+](=O)[O-])cc1)c1ccc(O)cc1O`: the T/C (endpoint: mean survival time, dose: 100.0 mg/kg/injection, schedule: Q04DX003 (ip), vehicle: Klucel (hydroxypropylcellulose) (HPC)) was 96 % of control; the T/C (endpoint: mean survival time, dose: 200.0 mg/kg/injection, schedule: Q04DX003 (ip), vehicle: Klucel (hydroxypropylcellulose) (HPC)) was 98 % of control; the T/C (endpoint: mean survival time, dose: 400.0 mg/kg/injection, schedule: Q04DX003 (ip), vehicle: Klucel (hydroxypropylcellulose) (HPC)) is 103 % of control.
As for `c1ccc2[nH]c(CN(CCN(Cc3nc4ccccc4[nH]3)Cc3nc4ccccc4[nH]3)Cc3nc4ccccc4[nH]3)nc2c1`, the T/C runs as follows: (endpoint: median survival time, dose: 3.12 mg/kg/injection, schedule: Q01DX005 (ip), vehicle: DMSO) 100 % of control; (endpoint: median survival time, dose: 6.25 mg/kg/injection, schedule: Q01DX005 (ip), vehicle: DMSO) 100 % of control.
As for `CN1CN(C2CCCCC2)CSC1=S`, the T/C is, setting by setting: under setting [4], 102 % of control; under setting [5], 102 % of control; under setting [6], 100 % of control; under setting [7], 96 % of control; under setting [8], 102 % of control; under setting [9], 106 % of control.
In the case of `CC(O)C(NC(=O)C(N)CCCN=C(N)N)C(=O)NC(Cc1ccccc1)C(=O)O` (stereo not drawn) (H-Arg-Thr-Phe-OH; configuration not given here), the T/C is, setting by setting: (endpoint: mean survival time, dose: 12.5 mg/kg/injection, schedule: Q04DX002 (ip), vehicle: saline) 98 % of control; (endpoint: mean survival time, dose: 25.0 mg/kg/injection, schedule: Q04DX002 (ip), vehicle: saline) 95 % of control; (endpoint: mean survival time, dose: 50.0 mg/kg/injection, schedule: Q04DX002 (ip), vehicle: saline) 98 % of control.
Consider `Clc1ccc(NC(Nc2ccc(Cl)cc2Cl)C(Cl)(Cl)Cl)c(Cl)c1`, for which the T/C under setting [5] was 101 % of control, the T/C under setting [7] is 106 % of control and the T/C under setting [9] is 95 % of control.
On to `CCCCCCCCCCCC[NH-].CCCCCCCCCCCC[NH-].[Cl][Pt+2][Cl]`, for which the T/C runs as follows: (endpoint: mean survival time, dose: 6.25 mg/kg/injection, schedule: Q04DX003 (ip), vehicle: saline + alcohol) 111 % of control; (endpoint: mean survival time, dose: 12.5 mg/kg/injection, schedule: Q04DX003 (ip), vehicle: saline + alcohol) 95 % of control; (endpoint: mean survival time, dose: 25.0 mg/kg/injection, schedule: Q04DX003 (ip), vehicle: saline + alcohol) 100 % of control; (endpoint: mean survival time, dose: 50.0 mg/kg/injection, schedule: Q04DX003 (ip), vehicle: saline + alcohol) 103 % of control; (endpoint: mean survival time, dose: 100.0 mg/kg/injection, schedule: Q04DX003 (ip), vehicle: saline + alcohol) 100 % of control.
Consider `C=CS(=O)(=O)CCc1ccccc1`, for which the T/C reads like this: (endpoint: mean survival time, dose: 50.0 mg/kg/injection, schedule: Q01DX001 (ip), vehicle: Klucel (hydroxypropylcellulose) (HPC)) 101 % of control; under setting [10], 111 % of control; under setting [11], 108 % of control.
In the case of `Nc1cccc[n+]1CC(O)C(=O)[O-]` (stereo unspecified), the T/C reads like this: under setting [12], 107 % of control; under setting [4], 98 % of control; under setting [6], 101 % of control.
As for `CN(C)CCCNC1=C(Cl)C(=O)C(NCCCN(C)C)=C(Cl)C1=O`, the T/C runs as follows: (endpoint: median survival time, dose: 6.25 mg/kg/injection, schedule: Q01DX009 (ip), vehicle: Klucel (hydroxypropylcellulose) (HPC)) 97 % of control; (endpoint: median survival time, dose: 12.5 mg/kg/injection, schedule: Q01DX009 (ip), vehicle: Klucel (hydroxypropylcellulose) (HPC)) 94 % of control; (endpoint: median survival time, dose: 25.0 mg/kg/injection, schedule: Q01DX009 (ip), vehicle: Klucel (hydroxypropylcellulose) (HPC)) 96 % of control; (endpoint: median survival time, dose: 50.0 mg/kg/injection, schedule: Q01DX009 (ip), vehicle: Klucel (hydroxypropylcellulose) (HPC)) 97 % of control.
Regarding `NC1(C(=O)O)CCCC1.[Pb]`, the T/C under setting [4] is 90 % of control.
On to `O=N[O-].O=N[O-].[NH-]CC[NH-].[Pt+2]`, for which the T/C runs as follows: under setting [1], 101 % of control; under setting [2], 98 % of control; under setting [3], 93 % of control.
As for `CCC(C)(O)Cc1cnccn1` (stereo unspecified), the T/C runs as follows: (endpoint: mean survival time, dose: 100.0 mg/kg/injection, schedule: Q01DX009 (ip), vehicle: saline) 108 % of control; (endpoint: mean survival time, dose: 200.0 mg/kg/injection, schedule: Q01DX009 (ip), vehicle: saline) 97 % of control; (endpoint: mean survival time, dose: 400.0 mg/kg/injection, schedule: Q01DX009 (ip), vehicle: saline) 96 % of control.
In the case of `CC(=O)Nc1ccc2c(c1)C(=O)c1cc(NC(C)=O)ccc1-2`, the T/C runs as follows: under setting [13], 98 % of control; under setting [14], 111 % of control; under setting [15], 98 % of control.
On to `CCOP(=O)(N=S=O)OCC`, for which the T/C by setting is: (endpoint: mean survival time, dose: 12.5 mg/kg/injection, schedule: Q04DX003 (ip), vehicle: saline) 100 % of control; (endpoint: mean survival time, dose: 25.0 mg/kg/injection, schedule: Q04DX003 (ip), vehicle: saline) 103 % of control; (endpoint: mean survival time, dose: 50.0 mg/kg/injection, schedule: Q04DX003 (ip), vehicle: saline) 113 % of control.
On to `CC1=NN(c2cc(Cl)c(S(=O)(=O)O)cc2Cl)C(=O)C1`, for which the T/C by setting is: under setting [5], 92 % of control; under setting [7], 92 % of control; under setting [9], 86 % of control.
Consider `NC(C(=O)[O-])C(=O)[O-].NC1CCCCC1N.[Pt+4]`, for which the T/C was 109 % of control (endpoint: median survival time, dose: 1.0 mg/kg/injection, schedule: Q04DX003 (ip), vehicle: water) and 124 % of control (endpoint: median survival time, dose: 2.0 mg/kg/injection, schedule: Q04DX003 (ip), vehicle: water).
Consider `CNC(=O)c1ccc2ccccc2c1`, for which the T/C reads like this: under setting [12], 106 % of control; under setting [4], 95 % of control; under setting [6], 93 % of control; under setting [8], 95 % of control.
As for `Cc1ccc([Si](C)Cl)cc1`, the T/C is, setting by setting: under setting [5], 96 % of control; under setting [7], 93 % of control.
As to `O=C1O/C(=C\c2ccccc2)c2c(Br)c(Br)c(Br)c(Br)c21`, the T/C (endpoint: mean survival time, dose: 37.5 mg/kg/injection, schedule: Q01DX009 (ip), vehicle: saline) is 96 % of control; the T/C (endpoint: mean survival time, dose: 75.0 mg/kg/injection, schedule: Q01DX009 (ip), vehicle: saline) was 96 % of control; the T/C (endpoint: mean survival time, dose: 150.0 mg/kg/injection, schedule: Q01DX009 (ip), vehicle: saline) is 98 % of control; the T/C (endpoint: mean survival time, dose: 300.0 mg/kg/injection, schedule: Q01DX009 (ip), vehicle: saline) is 100 % of control.
Take `COc1ccc2ccccc2c1-c1c(OC)ccc2ccccc12`: the T/C was 100 % of control under setting [13], 103 % of control under setting [14] and 100 % of control under setting [15].
With `CN(C)C(=S)Oc1ccc(S(=O)(=O)F)c(Cl)c1Cl`, the T/C (endpoint: mean survival time, dose: 100.0 mg/kg/injection, schedule: Q04DX002 (ip), vehicle: saline with Tween-80) was 87 % of control and the T/C (endpoint: mean survival time, dose: 400.0 mg/kg/injection, schedule: Q04DX002 (ip), vehicle: saline with Tween-80) was 87 % of control.
For the molecule `CCC1(O)C(=O)OCc2c1cc1n(c2=O)Cc2cc3ccc(C)cc3nc2-1` (stereo unspecified), the T/C (endpoint: median survival time, dose: 10.0 mg/kg/injection, schedule: Q04DX002 (ip), vehicle: saline with Tween-80) is 108 % of control.
As to `CC(C)C(=O)OCCOc1ccccc1`, the T/C under setting [5] is 100 % of control, the T/C under setting [7] was 100 % of control and the T/C under setting [9] is 98 % of control.
Turning to `CSc1nc(N)c(N=O)c(=O)[nH]1`, the T/C under setting [10] was 98 % of control; the T/C under setting [11] is 100 % of control; the T/C (endpoint: mean survival time, dose: 400.0 mg/kg/injection, schedule: Q01DX001 (ip), vehicle: Klucel (hydroxypropylcellulose) (HPC)) is 109 % of control.
